Source: paper PMC6817881, “Antimalarial Quinoline Drugs Inhibit β-Hematin and Increase Free Hemin Catalyzing Peroxidative Reactions and Inhibition of Cysteine Proteases” (Scientific Reports, 2019)
Residues, ends and D or L forms follow the SMILES beside them. *: point of attachment. AMC = Cc1cc(=O)oc2cc(N*)ccc12; Cbz = O=C(OCc1ccccc1)*

How the values were obtained:
cathepsin B = target: T1, cathepsin B (Bos taurus, UniProt P07688); assay: RP-HPLC of released AMC; assay type: biochemical; conditions: 100 µM substrate, 37 °C, cysteine, globin, H2O2; hemin/chloroquine incubation medium
T1 construct: gene CTSB; native commercial enzyme from bovine spleen (Sigma)

papain = target: T2, papain (Carica papaya, UniProt P00784); assay: RP-HPLC of released AMC; assay type: biochemical; conditions: pH 4.8 acetate, 37 °C, 100 µM substrate, cysteine; medium also held H2O2, hemin/chloroquine
T2 construct: native commercial enzyme (Sigma)
T2 sequence (P00784 134-345): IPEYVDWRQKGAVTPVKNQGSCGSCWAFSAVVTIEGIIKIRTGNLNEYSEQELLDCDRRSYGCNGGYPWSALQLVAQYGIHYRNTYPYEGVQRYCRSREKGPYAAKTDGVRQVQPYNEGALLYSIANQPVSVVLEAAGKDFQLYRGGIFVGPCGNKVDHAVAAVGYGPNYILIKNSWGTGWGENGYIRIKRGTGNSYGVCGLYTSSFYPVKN

Cc1cc(=O)oc2cc(NC(=O)[C@H](CCCNC(=N)N)NC(=O)[C@H](Cc3ccccc3)NC(=O)OCc3ccccc3)ccc12 [Z-Phe-Arg-AMC] (Cbz-Phe-Arg-{AMC})
RP-HPLC of released AMC (cathepsin B): papain, ficin and cathepsin-B using Z-Phe-Arg-AMC peptide | RP-HPLC of released AMC (papain): papain, ficin and cathepsin-B using Z-Phe-Arg-AMC peptide
